In US20250381169A1, “METHODS FOR TREATING RENAL DISEASE” (Arizona Board of Regents on Behalf of the University of …, priority 2022, published 2025):
Entries after “also recorded” stand apart in the source; their conditions may differ.

Columns and labels:
[1] = system: renal proximal tubule cells (RPTCs); test: Renal proximal tubule cells treated with high glucose; assay type: cell-based
Description: Here, the effects of MC16 on mitochondrial dysfunction and dynamics in renal proximal tubule cells (RPTCs) treated with high glucose and in a mouse model of type 2 diabetes was assessed.

[2] = system: Db/db mice; test: db/db mouse model of diabetic kidney disease; assay type: in vivo
Description: Db/db and nondiabetic (db/m) mice (10 wk old) were treated with MC16 or vehicle for 3 wk and euthanized.

[3] = system: mice subjected to renal I/R; test: Mouse AKI model (renal ischemia reperfusion, I/R); assay type: in vivo
Description: Control and treated mice subjected to renal I/R were treated with MC16 (0.3 mg/kg) or vehicle 24 h after injury and then daily for 120 h (euthanized at 144 h). Using electron microscopy, mitochondria were counted. Vascular permeability was assessed with Evan's blue dye leakage and proteins were measured in renal cortices using immunoblot. Serum creatinine was also measured.

[4] = system: kidney cortex of naïve mice; test: Mitochondrial biogenesis in kidney cortex of naïve mice; assay type: in vivo
Description: Mice were treated with vehicle, 0.3 mg/kg or 1 mg/kg of MC16 with 2 doses IP (Oh, 24h) and harvested at 48 h.
Proteins were measured using immunoblot analysis or PCR to measure mRNA. […] FIG. 2G is a table of antioxidant and electron transport chain proteins and associated mRNAs.

[5] = system: aged mouse kidneys (renal cortex); test: Global metabolomics of renal cortex in aged mice; assay type: in vivo
Description: Aged 22-month-old male C57B/6J mice were administered 1.0 mg/kg of MC16 or normal saline every other day over a 21-day interval (n=8-9/group). Seven-month-old C57B/6J male mice (controls) were administered normal saline every other day over a 21-day interval (n=7). Kidneys were harvested and snap frozen in liquid nitrogen. Renal cortex biopsies were analyzed by Metabolon for global metabolomic analyses. Briefly, samples were processed and divided into four fractions: two for analysis by RP/UPLC-MS/MS with (+) ion mode electrospray ionization (IMESI), one for RP/UPLC-MS/MS with (−) IMESI, and one for HILIC/UPLC-MS/MS with (−) IMESI. […] A p-value of p≤0.05 and a false discovery rate of q<0.10 were utilized to identify global metabolite alteration and correct for multiple comparisons, respectively.

[6] = RPTCs exposed to 17 mM glucose, 96 h
[7] = FIG. 16, compared to diabetic mice getting vehicle
[8] = db/db mice 10 wk old, treated for 3 wk
[9] = I/R+MC16 group, decreased in I/R group
[10] = MC16-treated 'old' mice compared to saline-treated 'old' mice
[11] = MC16-treated 'old' mice vs saline-treated 'young' control mice

Q: Which results are given for `CCN1C(=O)C(Cc2cccc(OC)c2O)(OC(=O)N(C)C)c2cc(Cl)ccc21` (stereo not shown) [MC16, 5-chloro-1-ethyl-3-(2-hydroxy-3-methoxybenzyl)-2-oxoindolin-3-yl dimethylcarbamate]?
A: ATP [1, 6]: restored; ETC proteins [1, 6]: restored; oxygen consumption rate [1, 6]: restored; Mfn1 ([1]; RPTCs exposed to high glucose): restored; phospho-Drp1 ([1]; RPTCs exposed to high glucose): restored; PGC1α ([2]; FIG. 9, n=6): restores; MFN2 (fusion) ([2]; FIG. 10, n=6): increased; mitochondrial fission proteins ([2]; FIG. 11, n=6): no effect; mitophagy proteins ([2]; FIG. 12, n=6): increases; glomerular function over time ([2]; FIG. 13, mice have yet to show signs of DKD in the timeframe): does not change; vascular tight junction proteins ([2]; FIG. 15, n=6): improves; blood glucose [2, 7]: does not increase/decrease; urine output [2, 7]: does not increase/decrease; kidney weight ([2]; FIG. 17, relative to control mice): normalized; KIM1 ([2]; FIG. 18): normalizes; NGAL ([2]; FIG. 18): No effects; serum creatinine ([2]; FIG. 18): normalizes; ATP [2, 8]: prevented; also recorded: restores; phospho-Drp1 [2, 8]: restored; renal cortical ETC protein levels (complexes I, III, and V) [2, 8]: prevented; also recorded: restores; recovery of renal function (serum creatinine) ([3]; FIG. 3, n=6): promotes recovery; recovery of tubular injury (Kim1 expression) ([3]; FIG. 3, n=6): promotes recovery; MFN2 ([3]; FIG. 5, during injury or MC16 treatment): did not change; MFN1 (fusion) ([3]; FIG. 5, n=6): increases; pDRP1 (fission) ([3]; FIG. 6, at 144 h): decreases; DRP1 ([3]; FIG. 6, n=6): does not have an affect; PGC-1α in the cytosolic fraction ([3]; FIG. 7, cytosolic fraction): not in the cytosolic fraction; nuclear PGC-1α (biogenesis) ([3]; FIG. 7, nuclear fraction): increases; serum creatinine decrease ([3]; I/R+MC16, 0.3 mg/kg from 24 h after injury, daily, at 144 h (I/R group alone 41%)): 72%; Kim1 decrease ([3]; I/R+MC16 group, 0.3 mg/kg, 144 h): 50%; PGC-1α ([3]; I/R+MC16 group, renal cortex immunoblot): increased; Tight junction protein Claudin5 [3, 9]: recovered; Tight junction protein ZO-1 [3, 9]: recovered; Evan's blue dye leakage (vascular permeability) ([3]; I/R+MC16 group, increased 2.5-fold in I/R group): restored; mitochondria biogenesis in renal cortices ([3]; mitochondria counted by electron microscopy, 0.3 mg/kg): 1.4 fold; mitochondrial and antioxidant proteins ([4]; immunoblot or PCR, n=6): increases; mitochondrial biogenesis pathway proteins and/or associated mRNA ([4]; immunoblot or PCR, n=6): induces; Mitochondrial number in kidney cortex ([4]; naïve mice, 0.3 mg/kg or 1 mg/kg, 2 doses IP (0 h, 24 h), harvested at 48 h): increases; reduction in DHAP [5, 10]: 20%; reduction in fructose-6-phosphate [5, 10]: 24%; reduction in glucose-6-phosphate [5, 10]: 32%; long chain polyunsaturated fatty acids (n3 and n6) ([5]; MC16-treated 'old' mice vs saline-treated 'old' and 'young' mice controls): increase; glycolysis metabolites [5, 11]: no statistical changes; metabolic lipid alterations (diacylglycerols, monoacylglycerols, acyl glycines, PC, PE, plasmalogens, secondary bile acids) [5, 11]: not observed; origin of carnitine species ([5]; MC16-treated 'old' mice, saline-treated 'old' mice: leucine, isoleucine, valine metabolism): fatty acid metabolism; carnitine levels ([5]; both 'old' groups (saline and MC16)): elevated
